The source of these data is US5378696A, “Rapamycin esters” (American Home Products Corporation, priority 1993, dated 1995).

Converted amounts (≈) assume the structure as drawn. Structures can show the parent of a compound that is named as a salt. Where two headings read alike, the source gives them in different places. Some results are limits rather than exact numbers.

One experiment deals with pinch skin graft. The experiment can be described thus: survival time of pinch skin graft. It is filed as in vivo, mouse (male DBA/2 donors, male BALB/c recipients). The note with it: intraperitoneally, mean graft survival time ± S.D. The procedure:
(§1) Immunosuppressive activity was evaluated in an in vitro standard pharmacological test procedure to measure lymphocyte proliferation (LAF) and in two in vivo standard pharmacological test procedures. The first in vivo procedure was a popliteal lymph node (PLN) test procedure which measured the effect of compounds of this invention on a mixed lymphocyte reaction and the second in vivo procedure evaluated the survival time of a pinch skin graft.
The second in vivo test procedure is designed to determine the survival time of pinch skin graft from male DBA/2 donors transplanted to male BALB/c recipients. The method is adapted from Billingham R. E. and Medawar P. B., J. Exp. Biol. 28:385-402, (1951). Briefly, a pinch skin graft from the donor is grafted on the dorsum of the recipient as a homograft, and an autograft is used as control in the same region. […] Untreated recipients serve as rejection control. The graft is monitored daily and observations are recorded until the graft becomes dry and forms a blackened scab. This is considered as the rejection day. The mean graft survival time (number of days±S.D.) of the drug treatment group is compared with the control group.

For the next experiment, the system named is Candida albicans 3669. Kind of experiment: antifungal plate test procedure. The class given is cell-based. The procedure:
(§2) The following represents the typical procedure used. Compound to be tested was placed on sterile dried 1/4" plate disks, and allowed to dry. Agar plates were seeded with fungi and allowed to solidify. The impregnated disks were placed on the seeded Agar surface and incubated for the time required for the particular culture. Results are expressed in MIC (μg/ml) to inhibit growth.

Experiment [1] has as its system Candida albicans ATCC 10231. Kind of experiment: antifungal plate test procedure. It is filed as cell-based. The procedure: as §2
In experiment [2] the test system is Candida albicans ATCC 38246. Kind of experiment: antifungal plate test procedure. It is filed as cell-based. Here is the method: as §2
Experiment [3] relates to Candida albicans ATCC 38247. The experiment can be described thus: antifungal plate test procedure. It is filed as cell-based. Here is the method: as §2
The subject of experiment [4] is Candida albicans ATCC 38248. Kind of experiment: antifungal plate test procedure. It is filed as cell-based. Here is the method: as §2
Experiment [5] has as its system lymphocyte proliferation, cells from the thymus of normal BALB/c mice (PHA and IL-1). The experiment can be described thus: comitogen-induced thymocyte proliferation procedure (LAF). The class given is cell-based. Particulars: ratio, thymocytes 72 hours with PHA and IL-1, rapamycin 1.0. Here is the method:
as §1
Briefly, cells from the thymus of normal BALB/c mice are cultured for 72 hours with PHA and IL-1 and pulsed with tritiated thymidine during the last six hours. […] Cells are harvested and incorporated; radioactivity is determined. inhibition of lymphoproliferation is assessed in percent change in counts per minute from non-drug treated controls. The results are expressed by the following ratio: [formula]

Where [6] appears, read: Candida albicans, 3669, strain 3669, read-out: MIC.
[7] abbreviates: Candida albicans, ATCC10231, ATCC 10231, read-out: MIC.
Setting [8] is: Candida albicans, ATCC38246, ATCC 38246, read-out: MIC.
Where [9] appears, read: Candida albicans, ATCC38247, ATCC 38247, read-out: MIC.
Setting [10] is: Candida albicans, ATCC38248, ATCC 38248, read-out: MIC.

With `CO[C@H]1C[C@@H]2CC[C@@H](C)[C@@](O)(O2)C(=O)C(=O)N2CCCC[C@H]2C(=O)O[C@H]([C@H](C)C[C@@H]2CC[C@@H](OC(=O)CCC(=O)O)[C@H](OC)C2)CC(=O)[C@H](C)/C=C(\C)[C@@H](OC(=O)CCC(=O)O)[C@@H](OC)C(=O)[C@H](C)C[C@H](C)/C=C/C=C/C=C/1C` [Example 11, Rapamycin-31,42-bishemisuccinate], the “Skin Graft (days + SD), mean graft survival time” value (from here on “Skin Graft (days + SD)”) with pinch skin graft is listed as 7.8 ± 1.7 days. Besides, the MIC (in the experiment on Candida albicans 3669 (setting [6]); in experiment [1] (setting [7]); in experiment [2] (setting [8]); in experiment [3] (setting [9]); in experiment [4] (setting [10])) was more than 0.4 mg/L each time.

With `CO[C@H]1C[C@@H]2CC[C@@H](C)[C@@](O)(O2)C(=O)C(=O)N2CCCC[C@H]2C(=O)O[C@H]([C@H](C)C[C@@H]2CC[C@@H](OC(=O)CCC(=O)OCc3ccccc3)[C@H](OC)C2)CC(=O)[C@H](C)/C=C(\C)[C@@H](O)[C@@H](OC)C(=O)[C@H](C)C[C@H](C)/C=C/C=C/C=C/1C` [Example 3, Rapamycin-42-(monobenzylsuccinate)], the “LAF (ratio)” value in experiment [5] amounted to 3.27. The “Skin Graft (days + SD)” value in the experiment on pinch skin graft was found to be 12.7 ± 0.9 days. The MIC (commonly the lowest concentration that inhibits growth of the organism) stood at 0.1 mg/L (≈ 0.0905 µM) with Candida albicans 3669 (setting [6]); 0.2 mg/L (≈ 0.181 µM) in experiment [1] (setting [7]); 0.1 mg/L (≈ 0.0905 µM) in experiment [2] (setting [8]); 0.4 mg/L (≈ 0.362 µM) in experiment [3] (setting [9]); 0.1 mg/L (≈ 0.0905 µM) in experiment [4] (setting [10]).

In the case of `C=CCOC(=O)CCCC(=O)O[C@@H]1/C(C)=C/[C@@H](C)C(=O)C[C@@H]([C@H](C)C[C@@H]2CC[C@@H](O)[C@H](OC)C2)OC(=O)[C@@H]2CCCCN2C(=O)C(=O)[C@]2(O)O[C@@H](CC[C@H]2C)C[C@H](OC)/C(C)=C/C=C/C=C/[C@@H](C)C[C@@H](C)C(=O)[C@@H]1OC` [Example 15, Rapamycin-31-allylglutarate], in experiment [5], the “LAF (ratio)” value is 0.40. Also, the “Skin Graft (days + SD)” value with pinch skin graft turned out to be 9.8 ± 0.8 days.

With `CO[C@H]1C[C@@H]2CC[C@@H](C)[C@@](O)(O2)C(=O)C(=O)N2CCCC[C@H]2C(=O)O[C@H]([C@H](C)C[C@@H]2CC[C@@H](OC(=O)CCC(=O)OCc3ccccc3)[C@H](OC)C2)CC(=O)[C@H](C)/C=C(\C)[C@@H](OC(=O)CCC(=O)OCc2ccccc2)[C@@H](OC)C(=O)[C@H](C)C[C@H](C)/C=C/C=C/C=C/1C` [Example 2, Rapamycin-31,42-bis(monobenzylsuccinate)], the “LAF (ratio)” value in experiment [5] is on record as 0.9. Also, in the experiment on pinch skin graft, the “Skin Graft (days + SD)” value came out at 10.7 ± 1.2 days. Further, the MIC with Candida albicans 3669 (setting [6]) is 0.4 mg/L (≈ 0.309 µM); in experiment [1] (setting [7]), more than 0.4 mg/L; in experiment [2] (setting [8]), 0.4 mg/L (≈ 0.309 µM); in experiment [3] (setting [9]) it was more than 0.4 mg/L; in experiment [4] (setting [10]), 0.4 mg/L (≈ 0.309 µM).

Consider `CO[C@H]1C[C@@H]2CC[C@@H](C)[C@@](O)(O2)C(=O)C(=O)N2CCCC[C@H]2C(=O)O[C@H]([C@H](C)C[C@@H]2CC[C@@H](OC(=O)COCC(=O)O)[C@H](OC)C2)CC(=O)[C@H](C)/C=C(\C)[C@@H](O)[C@@H](OC)C(=O)[C@H](C)C[C@H](C)/C=C/C=C/C=C/1C` [Example 7, Rapamycin-42-hemi-3'-oxoglutarate], for which the “LAF (ratio)” value in experiment [5] was found to be 0.97. Also, in the experiment on pinch skin graft, the “Skin Graft (days + SD)” value stood at 12.0 ± 1.0 days. Moreover, the minimal inhibitory concentration (MIC) stood at 0.2 mg/L (≈ 0.194 µM) with Candida albicans 3669 (setting [6]); 0.1 mg/L (≈ 0.0971 µM) in experiment [1] (setting [7]); 0.4 mg/L (≈ 0.388 µM) in experiment [2] (setting [8]); 0.1 mg/L (≈ 0.0971 µM) in experiment [3] (setting [9]); 0.1 mg/L (≈ 0.0971 µM) in experiment [4] (setting [10]).

As to `CO[C@H]1C[C@@H]2CC[C@@H](C)[C@@](O)(O2)C(=O)C(=O)N2CCCC[C@H]2C(=O)O[C@H]([C@H](C)C[C@@H]2CC[C@@H](OC(=O)CCCC(=O)O)[C@H](OC)C2)CC(=O)[C@H](C)/C=C(\C)[C@@H](OC(=O)CCCC(=O)O)[C@@H](OC)C(=O)[C@H](C)C[C@H](C)/C=C/C=C/C=C/1C` [Example 6, Rapamycin-31,42-bishemiglutarate bistromethamine salt], the “LAF (ratio)” value in experiment [5] came to 0.01. Further, in the experiment on pinch skin graft, the “Skin Graft (days + SD)” value is 8.0 ± 0.9 days. Besides, the MIC in the experiment with Candida albicans 3669 (strain 3669) was more than 0.4 mg/L; in experiment [1] (ATCC 10231), 0.4 mg/L; in experiment [2] (ATCC 38246), more than 0.4 mg/L; in experiment [3] (ATCC 38247), 0.4 mg/L; in experiment [4] (ATCC 38248), more than 0.4 mg/L.

As for `CO[C@H]1C[C@@H]2CC[C@@H](C)[C@@](OC(=O)CCC(=O)OCc3ccccc3)(O2)C(=O)C(=O)N2CCCC[C@H]2C(=O)O[C@H]([C@H](C)C[C@@H]2CC[C@@H](OC(=O)CCC(=O)OCc3ccccc3)[C@H](OC)C2)CC(=O)[C@H](C)/C=C(\C)[C@@H](OC(=O)CCC(=O)OCc2ccccc2)[C@@H](OC)C(=O)[C@H](C)C[C@H](C)/C=C/C=C/C=C/1C` [Example 1, Rapamycin-14,31,42-tris(monobenzylsuccinate)], the “LAF (ratio)” value in experiment [5] is on record as 0.37. The “Skin Graft (days + SD)” value in the experiment with pinch skin graft amounted to 8.2 ± 1.2 days. In addition, the MIC (in the experiment with Candida albicans 3669 (setting [6]); in experiment [1] (setting [7]); in experiment [2] (setting [8]); in experiment [3] (setting [9]); in experiment [4] (setting [10])) was more than 0.4 mg/L throughout.

Take `CO[C@H]1C[C@@H]2CC[C@@H](C)[C@@](O)(O2)C(=O)C(=O)N2CCCC[C@H]2C(=O)O[C@H]([C@H](C)C[C@@H]2CC[C@@H](OC(=O)COCC(=O)O)[C@H](OC)C2)CC(=O)[C@H](C)/C=C(\C)[C@@H](OC(=O)COCC(=O)O)[C@@H](OC)C(=O)[C@H](C)C[C@H](C)/C=C/C=C/C=C/1C` [Example 8]: in experiment [5], the “LAF (ratio)” value was “positive ratio”. For the same compound, the MIC in the experiment with Candida albicans 3669 (setting [6]) was more than 0.4 mg/L; in experiment [1] (ATCC 10231), 0.4 mg/L (≈ 0.349 µM); in experiment [2] (setting [8]) it was more than 0.4 mg/L; in experiment [3] (setting [9]), 0.4 mg/L (≈ 0.349 µM); in experiment [4] (setting [10]), more than 0.4 mg/L.

As to `CO[C@H]1C[C@@H]2CC[C@@H](C)[C@@](O)(O2)C(=O)C(=O)N2CCCC[C@H]2C(=O)O[C@H]([C@H](C)C[C@@H]2CC[C@@H](OC(=O)COCC(=O)O)[C@H](OC)C2)CC(=O)[C@H](C)/C=C(\C)[C@@H](OC(=O)COCC(=O)O)[C@@H](OC)C(=O)[C@H](C)C[C@H](C)/C=C/C=C/C=C/1C` [Example 10, Rapamycin-31,42-bishemi-3'-oxoglutarate bistromethamine salt], the “LAF (ratio)” value in experiment [5] was determined as 0.18. Also, in the experiment on pinch skin graft, the “Skin Graft (days + SD)” value is reported as 10.8 ± 0.8 days. Besides, the MIC was more than 0.4 mg/L in the experiment with Candida albicans 3669 (strain 3669); 0.1 mg/L in experiment [1] (ATCC 10231); more than 0.4 mg/L in experiment [2] (ATCC 38246); 0.2 mg/L in experiment [3] (ATCC 38247); 0.4 mg/L in experiment [4] (ATCC 38248).

Regarding `CO[C@H]1C[C@@H]2CC[C@@H](C)[C@@](O)(O2)C(=O)C(=O)N2CCCC[C@H]2C(=O)O[C@H]([C@H](C)C[C@@H]2CC[C@@H](OC(=O)COCC(=O)O)[C@H](OC)C2)CC(=O)[C@H](C)/C=C(\C)[C@@H](OC(=O)COCC(=O)O)[C@@H](OC)C(=O)[C@H](C)C[C@H](C)/C=C/C=C/C=C/1C` [Example 9, Rapamycin-31,42-bishemi-3'-oxoglutarate disodium salt], the “LAF (ratio)” value in experiment [5] (disodium salt) was 0.22. Moreover, the “Skin Graft (days + SD)” value with pinch skin graft (disodium salt) came to 10.2 ± 1.2 days. The MIC is more than 0.4 mg/L in the experiment with Candida albicans 3669 (strain 3669); 0.2 mg/L in experiment [1] (ATCC 10231, disodium salt); more than 0.4 mg/L in experiment [2] (ATCC 38246); 0.2 mg/L in experiment [3] (ATCC 38247, disodium salt); 0.4 mg/L in experiment [4] (ATCC 38248, disodium salt).

As for `C=CCOC(=O)CCCC(=O)O[C@@H]1CC[C@@H](C[C@@H](C)[C@@H]2CC(=O)[C@H](C)/C=C(\C)[C@@H](O)[C@@H](OC)C(=O)[C@H](C)C[C@H](C)/C=C/C=C/C=C(\C)[C@@H](OC)C[C@@H]3CC[C@@H](C)[C@@](O)(O3)C(=O)C(=O)N3CCCC[C@H]3C(=O)O2)C[C@H]1OC` [Example 14, Rapamycin-42-allylglutarate], the “LAF (ratio)” value in experiment [5] stood at 3.42. Besides, the “Skin Graft (days + SD)” value with pinch skin graft worked out at 11.0 ± 0.0 days.
